According to US7084128B2, “Method for reducing intraocular pressure” (Inspire Pharmaceuticals, Inc., priority 2002, dated 2006):

How the values were obtained:
[1] = system: intraocular pressure (IOP); settings: New Zealand white rabbits; for time of maximal reduction in IOP: 0.25 mM topical single dose, IOP measured at 0.5, 1, 2 and 5 hours after application; for maximal reduction in IOP: 10 microliters of 0.25 mM in 0.9% saline, topical, unilateral, single dose, at time of maximal effect, n=4
Procedure: The actions of 2′-(O)-, 3′-(O)-(benzyl)methylenedioxy-adenosine-5′-triphosphate (Compound 1) and 2′-(O)-, 3′-(O)-(benzyl)methylenedioxy-2″-(O)-,3″-(O)-benzyl methylenedioxy-P^1, P^4-di(adenosine 5′-)tetraphosphate (Compound 2) on intraocular pressure (IOP) were assessed in New Zealand white rabbits.
Intraocular pressure measurements: IOP was measured using a TONOPEN contact tonometer supplied by MENTOR (USA). Ten microliters of the agents were applied topically and unilaterally to the cornea, whereas the contralateral eye received the same volume of saline solution. The corneas were anesthetized to avoid any discomfort associated with the use of the tonometer. Two measurements were made before application of the agents.
Pharmacological studies: Compounds were prepared at a concentration of 0.25 mM in 0.9% saline and intraocular pressure was measured at 0.5, 1, 2, and 5 hours after the application. A single dose was tested in a single animal on a single day.

intraocular pressure = settings: literature (Peral et al. 2000; Pintor et al. 2000); cited from earlier work

Compound | time of maximal reduction in IOP [1] | maximal reduction in IOP [1] | effect on intraocular pressure in rabbits (intraocular pressure)
2′-(O)-, 3′-(O)-(benzyl)methylenedioxy-adenosine-5′-triphosphate [Compound 1] | 1 to 2 h | 21% | 
Nc1ncnc2c1ncn2[C@@H]1O[C@H](COP(=O)(O)CP(=O)(O)OP(=O)(O)O)[C@@H](O)[C@H]1O [Alpha, Beta-Methylene adenosine triphosphate] |  |  | reduce intraocular pressure
Nc1ncnc2c1ncn2[C@@H]1O[C@H](COP(=O)(O)OP(=O)(O)OP(=O)(O)OP(=O)(O)OC[C@H]2O[C@@H](n3cnc4c(N)ncnc43)[C@@H]3OC(Cc4ccccc4)O[C@@H]32)[C@H]2OC(Cc3ccccc3)O[C@H]21 (stereo partly shown) [Compound 2, 2′-(O)-, 3′-(O)-(benzyl)methylenedioxy-2″-(O)-,3″-(O)-benzyl methylenedioxy-P^1, P^4-di(adenosine 5′-)tetraphosphate] | 1 h | 22% | 
Nc1ncnc2c1ncn2[C@@H]1O[C@H](COP(=O)(O)OP(=O)(O)OP(=O)(O)OP(=O)(O)OC[C@H]2O[C@@H](n3cnc4c(N)ncnc43)[C@H](O)[C@@H]2O)[C@@H](O)[C@H]1O [Diadenosine tetraphosphate] |  |  | lower intraocular pressure
Nc1ncnc2c1ncn2[C@@H]1O[C@H](COP(=O)(O)OP(=O)(O)CP(=O)(O)O)[C@@H](O)[C@H]1O [beta, gamma methylene adenosine triphosphate] |  |  | reduce intraocular pressure
